Reference: ChEMBL document CHEMBL4196213, “Design and Synthesis of Novel Amino-triazine Analogues as Selective Bruton's Tyrosine Kinase Inhibitors for Treatment of Rheumatoid Arthritis” (J Med Chem, 2018)
Values after ≈ are worked out from the molar mass of the structure shown.

How the values were obtained:
[1] = Kinetic solubility of the compound incubated for 1 hr by LC-UV or LC-MS/MS analysis; format: physicochemical; conditions: read-out: Kinetic_solubility
[2] = Tmax in dog at 2 mg/kg, po; format: ADME, organism-based, Canis lupus familiaris; conditions: in vivo
[3] = Cmax in dog at 1 mg/kg, iv; format: ADME, organism-based, Canis lupus familiaris; parameters: dose 1 mg/kg, route intravenous; conditions: in vivo
[4] = Cmax in dog at 2 mg/kg, po; format: ADME, organism-based, Canis lupus familiaris; parameters: dose 2 mg/kg, route oral; conditions: in vivo
[5] = AUC (0 to t) in dog at 1 mg/kg, iv; format: ADME, organism-based, Canis lupus familiaris; conditions: in vivo
[6] = AUC (0 to t) in dog at 2 mg/kg, po; format: ADME, organism-based, Canis lupus familiaris; conditions: in vivo
[7] = AUC (0 to infinity) in dog at 1 mg/kg, iv; format: ADME, organism-based, Canis lupus familiaris; parameters: dose 1 mg/kg, time infinity, route intravenous; conditions: in vivo
[8] = AUC (0 to infinity) in dog at 2 mg/kg, po; format: ADME, organism-based, Canis lupus familiaris; parameters: dose 2 mg/kg, time infinity, route oral; conditions: in vivo
[9] = Volume of distribution in dog at 1 mg/kg, iv; format: ADME, organism-based, Canis lupus familiaris; conditions: in vivo
[10] = MRT (0 to infinity) in dog at 1 mg/kg, iv; format: ADME, organism-based, Canis lupus familiaris; conditions: in vivo
[11] = Oral bioavailability in dog at 2 mg/kg, iv; format: ADME, organism-based, Canis lupus familiaris; conditions: in vivo
[12] = Apparent permeability in human Caco2 cells; format: ADME, cell-based; conditions: Caco-2
[13] = Tmax in mouse at 10 mg/kg, po; format: ADME, organism-based; conditions: in vivo
[14] = Cmax in mouse at 2 mg/kg, iv; format: ADME, organism-based; parameters: dose 2 mg/kg, route intravenous; conditions: in vivo
[15] = AUC (0 to t) in mouse at 2 mg/kg, iv; format: ADME, organism-based; conditions: in vivo
[16] = AUC (0 to t) in mouse at 10 mg/kg, po; format: ADME, organism-based; conditions: in vivo
[17] = AUC (0 to infinity) in mouse at 2 mg/kg, iv; format: ADME, organism-based; parameters: dose 2 mg/kg, time infinity, route intravenous; conditions: in vivo
[18] = AUC (0 to infinity) in mouse at 10 mg/kg, po; format: ADME, organism-based; parameters: dose 10 mg/kg, time infinity, route oral; conditions: in vivo
[19] = Volume of distribution in mouse at 2 mg/kg, iv; format: ADME, organism-based; conditions: in vivo
[20] = MRT (0 to infinity) in mouse at 2 mg/kg, iv; format: ADME, organism-based; conditions: in vivo
[21] = MRT (0 to infinity) in mouse at 10 mg/kg, po; format: ADME, organism-based; conditions: in vivo
[22] = Oral bioavailability in mouse at 10 mg/kg; format: ADME, organism-based; conditions: in vivo
[23] = Tmax in rat at 10 mg/kg, po; format: ADME, organism-based; conditions: in vivo
[24] = Cmax in rat at 1 mg/kg, iv; format: ADME, organism-based; parameters: dose 1 mg/kg, route intravenous; conditions: in vivo
[25] = Cmax in rat at 10 mg/kg, po; format: ADME, organism-based; parameters: dose 10 mg/kg, route oral; conditions: in vivo
[26] = AUC (0 to t) in rat at 1 mg/kg, iv; format: ADME, organism-based; conditions: in vivo
[27] = AUC (0 to t) in rat at 10 mg/kg, po; format: ADME, organism-based; conditions: in vivo
[28] = AUC (0 to infinity) in rat at 10 mg/kg, po; format: ADME, organism-based; parameters: dose 10 mg/kg, route oral, time infinity; conditions: in vivo
[29] = Volume of distribution in rat at 1 mg/kg, iv; format: ADME, organism-based; conditions: in vivo
[30] = MRT (0 to infinity) in rat at 1 mg/kg, iv; format: ADME, organism-based; conditions: in vivo
[31] = MRT (0 to infinity) in rat at 10 mg/kg, po; format: ADME, organism-based; conditions: in vivo
[32] = Oral bioavailability in rat at 10 mg/kg; format: ADME, organism-based; conditions: in vivo

Nc1nc(Nc2cn[nH]c2)nc(-c2cccc(-n3ccc4cc(C5CC5)cc(F)c4c3=O)c2CO)n1
solubility kinetic at 1 h [1]: 12 µM (≈ 5.81 µg/mL)

Nc1nc(Nc2ccc(N3CCOCC3)cc2)nc(-c2cccc(-n3ccc4cc(C5CC5)cc(F)c4c3=O)c2CO)n1
solubility kinetic at 1 h [1]: 1.2 µM (≈ 0.696 µg/mL)

Cn1cc(Nc2nc(N)nc(-c3cccc(-n4ccc5cc(C6CC6)cc(F)c5c4=O)c3CO)n2)cc1C#N
solubility kinetic at 1 h [1]: 0.67 µM (≈ 0.35 µg/mL)

Cn1cc(Nc2nc(N)nc(-c3cccc(-n4ccc5cc(C6CC6)cc(F)c5c4=O)c3CO)n2)cn1.O=S(=O)(O)O
Tmax [2]: 2 h | Cmax [3]: 4960 ng/mL | Cmax [4]: 2090 ng/mL | AUC(0-t) [5]: 11300 ng·h/mL | AUC(0-t) [6]: 9850 ng·h/mL | AUC(0-inf) [7]: 11500 ng·h/mL | AUC(0-inf) [8]: 10000 ng·h/mL | Vd [9]: 0.29 L/kg | MRT inf [10]: 3.31 h | bioavailability [11]: 43.7%

Nc1nc(Nc2cnn(C3CC3)c2)nc(-c2cccc(-n3ccc4cc(C5CC5)cc(F)c4c3=O)c2CO)n1
solubility kinetic at 1 h [1]: 4.7 µM (≈ 2.47 µg/mL)

CC(C)(C)c1ccc(C(=O)Nc2cccc(-c3nc(N)nc(Nc4ccc(C(=O)N5CCOCC5)cc4)n3)c2CO)cc1
Papp [12]: 7.4 ×10⁻⁶ cm/s

CC(C)n1cc(Nc2nc(N)nc(-c3cccc(-n4ccc5cc(C6CC6)cc(F)c5c4=O)c3CO)n2)cc1C#N
solubility kinetic at 1 h [1]: 4.8 µM (≈ 2.64 µg/mL)

CC(C)(C)c1ccc(C(=O)Nc2cccc(-c3nc(N)nc(Nc4ccc(N5CCOCC5)cc4)n3)c2CO)cc1
Papp [12]: 16.3 ×10⁻⁶ cm/s

COCCOCCn1cc(Nc2nc(N)nc(-c3cccc(-n4ccc5cc(C6CC6)cc(F)c5c4=O)c3CO)n2)cc1C#N
solubility kinetic at 1 h [1]: 9.5 µM (≈ 5.8 µg/mL)

N#Cc1cc(Nc2nc(N)nc(-c3cccc(-n4ccc5cc(C6CC6)cc(F)c5c4=O)c3CO)n2)cn1C1CC1
solubility kinetic at 1 h [1]: 4 µM (≈ 2.19 µg/mL)

CCn1cc(Nc2nc(N)nc(-c3cccc(-n4ccc5cc(C6CC6)cc(F)c5c4=O)c3CO)n2)cc1C#N
solubility kinetic at 1 h [1]: 0.71 µM (≈ 0.381 µg/mL)

CC(C1CC1)n1cc(Nc2nc(N)nc(-c3cccc(-n4ccc5cc(C6CC6)cc(F)c5c4=O)c3CO)n2)cn1 (configuration not stated)
solubility kinetic at 1 h [1]: 2 µM (≈ 1.11 µg/mL)

Cn1cc(Nc2nc(N)nc(-c3cccc(-n4ccc5cc(C6CC6)cc(F)c5c4=O)c3CO)n2)cn1 [SOFNOBRUTINIB]
solubility kinetic at 1 h [1]: 20 µM (≈ 9.97 µg/mL) | Tmax [13]: 0.5 h | Cmax [14]: 2890 ng/mL | AUC(0-t) [15]: 3110 ng·h/mL | AUC(0-t) [16]: 10200 ng·h/mL | AUC(0-inf) [17]: 3110 ng·h/mL | AUC(0-inf) [18]: 10200 ng·h/mL | Vd [19]: 3.03 L/kg | MRT inf [20]: 1.3 h | MRT inf [21]: 1.56 h | bioavailability [22]: 65.8% | Tmax [23]: 2 h | Cmax [24]: 1380 ng/mL | Cmax [25]: 1480 ng/mL | AUC(0-t) [26]: 1920 ng·h/mL | AUC(0-t) [27]: 8700 ng·h/mL | AUC(0-inf) [28]: 8710 ng·h/mL | Vd [29]: 1.1 L/kg | MRT inf [30]: 1.79 h | MRT inf [31]: 4.88 h | bioavailability [32]: 44.4%
